The record followed here is patent publication US20230265151A1, “GIP/GLP1 CO-AGONIST COMPOUNDS” (priority 2020, published 2023).

What all share (assay type): cell-based
One assay addresses T1, hGIPR (Homo sapiens, UniProt P48546).
T1 construct: expressed in transfected cells
T1 sequence (P48546 22-466): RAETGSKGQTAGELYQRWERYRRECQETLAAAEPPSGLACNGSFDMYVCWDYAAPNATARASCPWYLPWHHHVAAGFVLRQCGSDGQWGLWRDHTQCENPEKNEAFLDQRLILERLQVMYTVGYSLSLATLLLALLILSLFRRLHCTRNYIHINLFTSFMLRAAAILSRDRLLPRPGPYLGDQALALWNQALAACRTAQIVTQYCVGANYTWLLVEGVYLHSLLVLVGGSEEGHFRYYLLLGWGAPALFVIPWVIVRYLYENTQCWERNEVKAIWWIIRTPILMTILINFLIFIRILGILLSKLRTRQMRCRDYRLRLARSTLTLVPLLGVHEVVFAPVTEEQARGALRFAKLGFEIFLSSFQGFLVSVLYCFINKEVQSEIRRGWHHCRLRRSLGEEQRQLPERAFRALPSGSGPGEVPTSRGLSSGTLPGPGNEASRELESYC
In words: Functional cAMP formation (HTRF) in HEK-293 clonal cells expressing hGIPR, 0.1% bovine casein, without or with 1.0% human serum albumin. The conditions noted are these: for EC50: geometric mean. Put shortly:
(§1)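 Cells were stimulated with peptide for 30 min at 37° C, then lysed in buffer carrying cAMP-d2 and anti-cAMP Eu3+-cryptate for a competitive HTRF read after at least 60 min at room temperature. The 665/620 nm ratio was converted to nM cAMP against a standard curve.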

The next assay concerns the target T2, hGCGR (Homo sapiens, UniProt P47871).
T2 construct: expressed in transfected cells
As to the kind of experiment: Functional cAMP formation (HTRF) in HEK-293 clonal cells expressing hGCGR, 0.1% bovine casein, without or with 1.0% human serum albumin. Put shortly:
as §1

Another assay has as its target hGLP-1R (Homo sapiens, UniProt P43220). As to the kind of experiment: Functional cAMP formation (HTRF) in HEK-293 clonal cells expressing hGLP-1R, 0.1% bovine casein, without or with 1.0% human serum albumin. On the set-up: expressed in transfected cells. The conditions noted are these: for EC50: geometric mean. Put shortly: as §1
Setting [1] is: HEK293, read-out: hGIPR Emax, % ± SEM, cAMP, 37° C., 0.1% bovine casein and 1.0% human serum albumin, percent of maximal response to GIP(1-42)NH2.
Setting [2] is: hGCGR EC50, nM (SEM, n), cAMP, 37° C., 0.1% bovine casein (no human serum albumin), geometric mean.
Setting [3] is: hGCGR EC50, nM (SEM, n), cAMP, 37° C., 0.1% bovine casein and 1.0% human serum albumin, geometric mean (SEM, n).
[4] abbreviates: HEK293, read-out: hGLP-1R Emax, % ± SEM, cAMP, 37° C., 0.1% bovine casein and 1.0% human serum albumin, percent of maximal response to GLP-1(7-36)NH2.
Setting [5] is: HEK293, read-out: hGLP-1R Emax, % ± SEM, cAMP, 37° C., 0.1% bovine casein, percent of maximal response to GLP-1(7-36)NH2, arithmetic mean.
Where [6] appears, read: hGLP-1R EC50, nM (SEM, n), cAMP, 37° C., 0.1% bovine casein (no human serum albumin).
Where [7] appears, read: 0.1% bovine casein and 1.0% human serum albumin, 37° C., read-out: hGIPR EC50, nM (SEM, n).
[8] abbreviates: HEK293, 0.1% bovine casein and 1.0% human serum albumin, 37° C., percent of maximal response to GIP(1-42)NH2, read-out: hGIPR Emax, % ± SEM.
Where [9] appears, read: cAMP, incubated at 37° C., 0.1% bovine casein (no human serum albumin), read-out: hGIPR EC50, nM (SEM, n).
Where [10] appears, read: 0.1% bovine casein and 1.0% human serum albumin, 37° C., geometric mean, read-out: hGCGR EC50, nM (SEM, n).
Where [11] appears, read: cAMP, incubated at 37° C., 0.1% bovine casein (no human serum albumin), geometric mean, read-out: hGCGR EC50, nM (SEM, n).
The mark [12] stands for this setting: 0.1% bovine casein and 1.0% human serum albumin, 37° C., read-out: hGLP-1R EC50, nM (SEM, n).
The mark [13] stands for this setting: HEK293, 0.1% bovine casein and 1.0% human serum albumin, 37° C., percent of maximal response to GLP-1(7-36)NH2, read-out: hGLP-1R Emax, % ± SEM.
[14] abbreviates: cAMP, incubated at 37° C., 0.1% bovine casein (no human serum albumin), read-out: hGLP-1R EC50, nM (SEM, n).

Read-outs that look alike come from different tables or passages of the source.

T2 sequence (P47871 26-477): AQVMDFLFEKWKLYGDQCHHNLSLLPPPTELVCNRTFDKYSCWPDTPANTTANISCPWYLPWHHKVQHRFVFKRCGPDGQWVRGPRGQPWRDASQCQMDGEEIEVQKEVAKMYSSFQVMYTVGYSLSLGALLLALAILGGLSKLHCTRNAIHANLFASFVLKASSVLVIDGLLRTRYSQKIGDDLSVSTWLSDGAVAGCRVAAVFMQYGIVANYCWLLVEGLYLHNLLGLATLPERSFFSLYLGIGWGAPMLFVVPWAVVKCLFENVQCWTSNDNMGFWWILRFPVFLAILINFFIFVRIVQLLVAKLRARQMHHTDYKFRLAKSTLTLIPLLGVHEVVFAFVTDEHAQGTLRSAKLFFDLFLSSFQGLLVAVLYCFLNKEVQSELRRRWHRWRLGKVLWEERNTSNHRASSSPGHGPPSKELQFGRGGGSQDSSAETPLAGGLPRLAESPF
hGLP-1R, sequence (P43220 24-463): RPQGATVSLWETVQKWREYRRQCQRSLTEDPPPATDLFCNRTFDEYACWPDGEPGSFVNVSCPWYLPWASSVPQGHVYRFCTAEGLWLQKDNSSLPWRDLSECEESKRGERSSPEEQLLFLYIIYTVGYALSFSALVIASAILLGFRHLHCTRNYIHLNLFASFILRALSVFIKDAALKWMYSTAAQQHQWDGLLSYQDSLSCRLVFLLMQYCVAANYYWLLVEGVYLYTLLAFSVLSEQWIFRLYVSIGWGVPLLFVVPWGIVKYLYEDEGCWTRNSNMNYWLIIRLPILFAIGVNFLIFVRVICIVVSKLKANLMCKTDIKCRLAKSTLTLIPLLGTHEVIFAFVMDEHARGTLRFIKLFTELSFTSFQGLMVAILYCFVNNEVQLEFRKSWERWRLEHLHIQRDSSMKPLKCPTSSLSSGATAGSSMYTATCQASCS

`CC[C@H](C)[C@H](NC(=O)[C@H](CC(C)C)NC(=O)[C@](C)(Cc1ccc(O)cc1)NC(=O)[C@@H](CCC(=O)O)NC(=O)[C@@H](NC(=O)[C@H](Cc1ccccc1)NC(=O)[C@H](CCC(=O)O)NC(=O)C(C)(C)NC(=O)[C@H](CCC(N)=O)NC(=O)[C@H](C)NC(=O)[C@H](CCCCNC(=O)COCCOCCNC(=O)COCCOCCNC(=O)CC[C@H](NC(=O)CCCCCCCCCOc1ccc(C(=O)O)cc1)C(=O)O)NC(=O)[C@H](CCCN)NC(=O)[C@H](CC(=O)O)NC(=O)[C@H](CC(C)C)NC(=O)[C@](C)(CC(C)C)NC(=O)[C@@H](NC(=O)C(C)(C)NC(=O)[C@@H](NC(=O)[C@H](CC(=O)O)NC(=O)[C@H](CO)NC(=O)[C@@H](NC(=O)[C@](C)(Cc1ccccc1F)NC(=O)[C@@H](NC(=O)CNC(=O)[C@H](CCC(=O)O)NC(=O)C(C)(C)NC(=O)[C@@H](N)Cc1ccc(O)cc1)[C@@H](C)O)[C@@H](C)O)C(C)C)[C@@H](C)CC)[C@@H](C)CC)C(=O)N[C@@H](CCCCNC(=O)COCCOCCNC(=O)COCCOCCNC(=O)CC[C@H](NC(=O)CCCCCCCCCOc1ccc(C(=O)O)cc1)C(=O)O)C(=O)NCC(=O)NCC(=O)N1CCC[C@H]1C(=O)N[C@@H](CO)C(=O)N[C@@H](CO)C(=O)NCC(=O)N[C@@H](C)C(=O)N1CCC[C@H]1C(=O)N1CCC[C@H]1C(=O)N1CCC[C@H]1C(=O)N[C@@H](CO)C(N)=O` [Example 326]: the maximal effect (Emax) at hGIPR (setting [1]) is 88.7%; on hGLP-1R (setting [4]), 96.1%; at hGLP-1R (setting [5]), 94.4%. The EC50 on hGIPR (hGIPR EC50, nM (SEM, n), cAMP, 37° C., 0.1% bovine casein (no human serum albumin)) is 0.0338 nM; at hGCGR (setting [2]), over 9950 nM; on hGCGR (setting [3]), over 9950 nM; at hGLP-1R (setting [6]), 0.186 nM.
With `CC[C@H](C)[C@H](NC(=O)[C@H](CCCN)NC(=O)[C@H](CC(=O)O)NC(=O)[C@H](CC(C)C)NC(=O)[C@](C)(CC(C)C)NC(=O)[C@@H](NC(=O)[C@H](CO)NC(=O)[C@H](CCc1ccc(O)cc1)NC(=O)[C@H](CC(=O)O)NC(=O)[C@H](CO)NC(=O)[C@@H](NC(=O)[C@](C)(Cc1ccccc1F)NC(=O)[C@@H](NC(=O)CNC(=O)[C@H](CCC(=O)O)NC(=O)C(C)(C)NC(=O)[C@@H](N)Cc1ccc(O)cc1)[C@@H](C)O)[C@@H](C)O)[C@@H](C)CC)C(=O)N[C@@H](C)C(=O)N[C@@H](CCC(N)=O)C(=O)NC(C)(C)C(=O)N[C@@H](CCCCNC(=O)COCCOCCNC(=O)COCCOCCNC(=O)CC[C@H](NC(=O)CCCCCCCCCOc1ccc(C(=O)O)cc1)C(=O)O)C(=O)N[C@@H](Cc1ccccc1)C(=O)N[C@H](C(=O)N[C@H](CCC(=O)O)C(=O)N[C@@](C)(Cc1ccc(O)cc1)C(=O)N[C@@H](CC(C)C)C(=O)N[C@H](C(=O)N[C@@H](CCCCNC(=O)COCCOCCNC(=O)COCCOCCNC(=O)CC[C@H](NC(=O)CCCCCCCCCOc1ccc(C(=O)O)cc1)C(=O)O)C(=O)NCC(=O)NCC(=O)N1CCC[C@H]1C(=O)N[C@@H](CO)C(=O)N[C@@H](CO)C(=O)NCC(=O)N[C@@H](C)C(=O)N1CCC[C@H]1C(=O)N1CCC[C@H]1C(=O)N1CCC[C@H]1C(=O)N[C@@H](CO)C(N)=O)[C@@H](C)CC)[C@@H](C)CC` [Example 332], the Emax came to 96.5% at hGIPR (setting [1]), 116% on hGLP-1R (setting [4]) and 114% on hGLP-1R (setting [5]). Also, the figures for the EC50 at hGCGR (setting [2]), on hGCGR (setting [3]) and on hGLP-1R (setting [6]) were over 9950 nM, over 9950 nM and 0.263 nM, respectively.
Turning to `CC[C@H](C)[C@H](NC(=O)[C@H](CC(C)C)NC(=O)[C@](C)(Cc1ccc(O)cc1)NC(=O)[C@@H](CCC(=O)O)NC(=O)[C@@H](NC(=O)[C@H](Cc1ccccc1)NC(=O)[C@H](CCC(=O)O)NC(=O)C(C)(C)NC(=O)[C@H](CCC(N)=O)NC(=O)[C@H](C)NC(=O)[C@H](CCCCNC(=O)COCCOCCNC(=O)CC[C@H](NC(=O)CCCc1ccc(C(C)(C)C)cc1)C(=O)O)NC(=O)[C@H](CCCN)NC(=O)[C@H](CC(=O)O)NC(=O)[C@H](CC(C)C)NC(=O)[C@](C)(CC(C)C)NC(=O)[C@@H](NC(=O)[C@H](CO)NC(=O)[C@H](Cc1ccncc1)NC(=O)[C@H](CC(=O)O)NC(=O)[C@H](CO)NC(=O)[C@@H](NC(=O)[C@](C)(Cc1ccccc1F)NC(=O)[C@@H](NC(=O)CNC(=O)[C@H](CCC(=O)O)NC(=O)C(C)(C)NC(=O)[C@@H](N)Cc1ccc(O)cc1)[C@@H](C)O)[C@@H](C)O)[C@@H](C)CC)[C@@H](C)CC)C(=O)N[C@@H](CCC(=O)O)C(=O)NCC(=O)NCC(=O)N1CCC[C@H]1C(=O)N[C@@H](CO)C(=O)N[C@@H](CO)C(=O)NCC(=O)N[C@@H](C)C(=O)N1CCC[C@H]1C(=O)N1CCC[C@H]1C(=O)N1CCC[C@H]1C(=O)N[C@@H](CO)C(=O)N[C@@H](CCCCNC(=O)COCCOCCNC(=O)CC[C@H](NC(=O)CCCc1ccc(C(C)(C)C)cc1)C(=O)O)C(N)=O` [Example 209], the EC50 on hGIPR (setting [7]) is 0.173 nM; at hGIPR (setting [9]), 0.0133 nM; on hGCGR (setting [10]), over 9950 nM; on hGCGR (setting [11]), over 9950 nM; on hGLP-1R (setting [12]), 1.16 nM; on hGLP-1R (setting [14]) it was 0.235 nM. Further, the Emax on hGIPR (setting [8]) was 90.8%; on hGLP-1R (setting [13]) it was 109%; on hGLP-1R (HEK293, percent of maximal response to GLP-1(7-36)NH2, 37° C., 0.1% bovine casein, arithmetic mean, read-out: hGLP-1R Emax, % ± SEM), 100%.
Take `CC[C@H](C)[C@H](NC(=O)[C@H](CC(C)C)NC(=O)[C@](C)(Cc1ccc(O)cc1)NC(=O)[C@@H](CCC(=O)O)NC(=O)[C@@H](NC(=O)[C@H](Cc1ccccc1)NC(=O)[C@H](CCCCNC(=O)COCCOCCNC(=O)COCCOCCNC(=O)CC[C@H](NC(=O)CCCc1ccc(C(C)(C)C)cc1)C(=O)O)NC(=O)C(C)(C)NC(=O)[C@H](CCC(N)=O)NC(=O)[C@H](C)NC(=O)[C@H](CCCCNC(=O)COCCOCCNC(=O)COCCOCCNC(=O)CC[C@H](NC(=O)CCCc1ccc(C(C)(C)C)cc1)C(=O)O)NC(=O)[C@H](CCCN)NC(=O)[C@H](CC(=O)O)NC(=O)[C@H](CC(C)C)NC(=O)[C@](C)(CC(C)C)NC(=O)[C@@H](NC(=O)[C@H](CO)NC(=O)[C@H](Cc1ccncc1)NC(=O)[C@H](CC(=O)O)NC(=O)[C@H](CO)NC(=O)[C@@H](NC(=O)[C@](C)(Cc1ccccc1F)NC(=O)[C@@H](NC(=O)CNC(=O)[C@H](CCC(=O)O)NC(=O)C(C)(C)NC(=O)[C@@H](N)Cc1ccc(O)cc1)[C@@H](C)O)[C@@H](C)O)[C@@H](C)CC)[C@@H](C)CC)C(=O)N[C@@H](CCC(=O)O)C(=O)NCC(=O)NCC(=O)N1CCC[C@H]1C(=O)N[C@@H](CO)C(=O)N[C@@H](CO)C(=O)NCC(=O)N[C@@H](C)C(=O)N1CCC[C@H]1C(=O)N1CCC[C@H]1C(=O)N1CCC[C@H]1C(=O)N[C@@H](CO)C(N)=O` [Example 131]: the EC50 on hGIPR (setting [7]) was 0.0581 nM; at hGIPR (setting [9]), 0.0156 nM; at hGCGR (setting [10]), over 9950 nM; on hGCGR (setting [11]) it was over 9950 nM; at hGLP-1R (setting [12]) it was 1.04 nM; on hGLP-1R (setting [14]), 0.19 nM. In addition, the maximal response (Emax) on hGIPR (setting [8]) was found to be 90.4 ± 1.62%; on hGIPR (HEK293, percent of maximal response to GIP(1-42)NH2, 37° C., 0.1% bovine casein, arithmetic mean, read-out: hGIPR Emax, % ± SEM) it was 96.4 ± 1.95%; on hGLP-1R (setting [13]), 112 ± 1.76%.
